Where “and” joins values, the source holds several entries; their conditions need not be identical. Equal entries are not always repeated. Entries after “also recorded” stand apart in the source; their conditions may differ. Where two headings read alike, the source gives them in different places.
Experiments:
[1] = Crystal form stability of drug substance in different temperature and humidity conditions; type: physicochemical
Method: The drug substance of Form II was subjected to different relative humidity levels at 40° C. (±2° C.), samples were pulled out and evaluated for crystal form after a specified time period, and the results are summarized in Table 10.
The drug substance of Form II was subjected to different temperatures at RH 32% (±5%), samples were pulled out and evaluated for crystal form after a specified time period, the results are summarized in Table 11.
The drug substance of Form II was packed with PE to evaluate the stability.
The drug substance of Form II was stored in sealed glass vial under ambient conditions for 9 months.

[2] = not given; remark: listed apart in the source
[3] = drug substance powder, individual determination, trihydrate

Structure (SMILES)	moisture uptake compared to patent form (DVS) (humidity levels 20% RH to 60% RH at 25° C., hydrate)	Crystal form stability, accelerated ([1]; packed with PE, 40° C., RH 75%, one month)	Crystal form stability ([1]; sealed glass vial, ambient conditions, 9 months)	moisture uptake compared to patent form (DVS) (humidity levels 50% RH to 60% RH at 25° C., trihydrate)	Compressibility Index ([2]; (Tapped Density-Bulk Density)/Tapped Density*100%, individual determination, trihydrate)	Compressibility Index Average ([2]; average of the determinations)	flowability compared with patent form ([2]; by compressibility index)	Bulk Density [2, 3]	Tapped Density [2, 3]	Flowability ([2]; rating by compressibility index, USP<1174>, trihydrate)
CCCCC(=O)N(Cc1ccc(-c2ccccc2-c2nnn[n-]2)cc1)[C@H](C(=O)[O-])C(C)C.CCOC(=O)[C@H](C)C[C@@H](Cc1ccc(-c2ccccc2)cc1)NC(=O)CCC(=O)[O-].O.[Na+].[Na+].[Na+] [Form I, trisodium [3-((1S,3R)-1-biphenyl-4-ylmethyl-3-ethoxycarbonyl-1-butylcarbamoyl) propionate-(S)-3′-methyl-2′-(pentanoyl{2″-(tetrazol-5-ylate)biphenyl-4′-ylmethyl}amino) butyrate] hydrate]	less hygroscopic; also recorded: less moisture uptake									
CCCCC(=O)N(Cc1ccc(-c2ccccc2-c2nnn[n-]2)cc1)[C@H](C(=O)[O-])C(C)C.CCOC(=O)[C@H](C)C[C@@H](Cc1ccc(-c2ccccc2)cc1)NC(=O)CCC(=O)[O-].O.O.O.[Na+].[Na+].[Na+] [Form II, trisodium [3-((1S,3R)-1-biphenyl-4-ylmethyl-3-ethoxycarbonyl-1-butylcarbamoyl) propionate-(S)-3′-methyl-2′-(pentanoyl{2″-(tetrazol-5-ylate)biphenyl-4′-ylmethyl}amino) butyrate] trihydrate]		remained stable	remained stable	less hygroscopic; also recorded: less moisture uptake	22% and 23% (2×)	22%	better	0.197 g/mL and 0.229 g/mL and 0.258 g/mL	0.251 g/mL and 0.297 g/mL and 0.337 g/mL	Passable

— US10508087B2, “Crystalline forms of trisodium supramolecular complex comprising valsartan and AHU-377 and methods thereof” (CRYSTAL PHARMATECH CO., LTD., priority 2014, dated 2019)
